Experimental data taken from patent US9296745B2, “Diacylglycerol acyltransferase 2 inhibitors” (Pfizer Inc., priority 2012, dated 2016).

What follows are molecules tested against Human DGAT2 (hDGAT2) (Homo sapiens (Human), UniProt Q96PD7) (assay: In vitro DGAT2 assay, IC50 determination with hDGAT2 membrane fraction). Settings: geometric mean; background for complete inhibition of DGAT2 obtained with 50 μM (1R,2R)-2-({3′-Fluoro-4′-[(6-fluoro-1,3-benzothiazol-2-yl)amino]-1,1′-biphenyl-4-yl}carbonyl)cyclopentanecarboxylic acid; read-out: DGAT2 IC50.
Type: biochemical
Experimental: Recombinant baculovirus for the FLAG-tagged hDGAT2 was generated in SF9 insect cells using Bac-to-Bac baculovirus expression system (Invitrogen) according to the manufacturer's protocol. For the expression of hDGAT2, SF9 cells (20 L) grown in Sf900II media were infected with hDGAT2 baculovirus at a multiplicity of infection of 1 in a Wave Bioreactor System 20/50P wave bag (GE Healthcare). After 40 hours of infection, the cells were then harvested by centrifugation at 5,000×g. The cell pellets were washed by resuspending in phosphate buffered saline (PBS) and collected by centrifugation at 5,000×g. The cell paste was flash frozen in liquid N2 and stored at −80° C. until needed. All operations below were at 4° C. unless otherwise noted. The cells were resuspended in lysis buffer (50 mM Tris-HCl, pH 8.0, 250 mM sucrose) including 1 mM ethylenediaminetetraacetic acid (EDTA) and the complete protease inhibitor cocktail (Roche Diagnostics) at a ratio of 3 ml buffer per 1 g cell paste. The cells were lysed by dounce homogenizer. The cell debris was removed by centrifugation at 1,000×g for 20 min, and the supernatant was centrifuged at 100,000×g for 1 hour. The resulting pellet was rinsed three times by filling ultracentrifuge tubes to the top with ice cold PBS before decanting. The washed pellet was resuspended with gentle stirring for 1 hour in lysis buffer containing 8 mM 3-[(3-cholamidopropyl)dimethylammonio]-1-propanesulfonate (CHAPS) at a ratio of 1 mL buffer per 1 g of original cell paste and centrifuged again at 100,000×g for 1 hour. The resulting supernatant (hDGAT2 membrane fraction) was aliquotted, flash frozen in liquid N2, and stored at −80° C. until use.
To 1 μL of compounds dissolved in 100% DMSO and spotted at the bottom of each well, 5 μL of 0.04% bovine serum albumin (BSA) (fatty acid free, Sigma Aldrich) was added and the mixture was incubated at room temperature for 20 minutes. To this mixture, 10 μL of hDGAT2 membrane fraction (0.01 mg/mL) diluted in 100 mM Hepes-NaOH, pH 7.4, 20 mM MgCl2 containing 200 nM methyl arachidonyl fluorophosphonate (Cayman Chemical; dried from ethyl acetate stock solution under argon gas and dissolved in DMSO as 5 mM stock) was added. […] The reaction mixtures were incubated at room temperature for 40 min and the reactions were stopped by addition of 5 μL of 1% H3PO4. After the addition of 45 μL MicroScint-E (Perkin-Elmer), plates were sealed with Top Seal-A covers (Perkin-Elmer) and phase partitioning of substrates and products was achieved using a HT-91100 microplate orbital shaker (Big Bear Automation, Santa Clara, Calif.). Plates were centrifuged at 2,000×g for 1 min in an Allegra 6R Centrifuge (Beckman Coulter) and then were sealed again with fresh covers before reading in a 1450 Microbeta Wallac Trilux Scintillation Counter (Perkin Elmer). DGAT2 activity was measured by quantifying the generated product [^14C]tridecanoylglycerol in the upper organic phase.
Inhibitors were tested at eleven different concentrations to generate IC50 values for each compound. […] Results are reported as geometric mean IC50 values.

Sequence of Human DGAT2 (hDGAT2) (Q96PD7 whole entry): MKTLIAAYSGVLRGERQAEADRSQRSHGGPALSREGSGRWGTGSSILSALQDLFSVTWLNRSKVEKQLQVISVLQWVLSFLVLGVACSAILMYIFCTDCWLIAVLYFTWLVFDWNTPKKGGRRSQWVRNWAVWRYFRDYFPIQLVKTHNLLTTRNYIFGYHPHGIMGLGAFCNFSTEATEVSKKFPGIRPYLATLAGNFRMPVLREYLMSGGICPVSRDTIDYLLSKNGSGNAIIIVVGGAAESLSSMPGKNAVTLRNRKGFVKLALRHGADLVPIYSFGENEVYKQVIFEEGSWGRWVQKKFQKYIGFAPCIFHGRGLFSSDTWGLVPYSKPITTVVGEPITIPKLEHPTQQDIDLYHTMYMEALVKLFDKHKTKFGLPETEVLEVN

| IC50 [nM] | Molecule |
| --- | --- |
| 321 | C[C@H]1CCCN1C(=O)[C@@H]1CCCN(c2ccc3nc(C4(n5cc(Cl)cn5)CC4)[nH]c3n2)C1 [Example 202, ((R)-1-(2-(1-(4-Chloro-1H-pyrazol-1-yl)cyclopropyl)-3H-imidazo[4,5-b]pyridin-5-yl)piperidin-3-yl)((S)-2-methylpyrrolidin-1-yl)methanone] |
| 1280 | O=C([C@@H]1CCCN(c2ccc3nc(C4(N5CCOCC5=O)CC4)[nH]c3n2)C1)N1CCCC1 [Example 137, (R)-4-(1-(5-(3-(Pyrrolidine-1-carbonyl)piperidin-1-yl)-3H-imidazo[4,5-b]pyridin-2-yl)cyclopropyl)morpholin-3-one] |
| 6.32 | O=C([C@@H]1CCCN(c2nc3[nH]c(-c4ccnc(C5CC5)n4)nc3cc2F)C1)N1CCCC1 [Example 136, (R)-(1-(2-(2-Cyclopropylpyrimidin-4-yl)-6-fluoro-3H-imidazo[4,5-b]pyridin-5-yl)piperidin-3-yl)(pyrrolidin-1-yl)methanone] |
| 47.3 | CN(C)C(=O)[C@@H]1CCCN(c2ccc3nc(-c4cccc(C5CC5)n4)[nH]c3n2)C1 [Example 150, (R)-1-(2-(6-Cyclopropylpyridin-2-yl)-3H-imidazo[4,5-b]pyridin-5-yl)-N,N-dimethylpiperidine-3-carboxamide] |
| 210 | c1cc(-c2nc3ccc(N4CCC[C@@H](c5ncc6n5CCC6)C4)nc3[nH]2)nc(C2CC2)n1 [Example 134, (R)-2-(2-Cyclopropylpyrimidin-4-yl)-5-(3-(6,7-dihydro-5H-pyrrolo[1,2-c]imidazol-3-yl)piperidin-1-yl)-3H-imidazo[4,5-b]pyridine] |
| 74.2 | O=C([C@@H]1CCCN(c2ccc3nc(C4(n5cc(Cl)cn5)CC4)[nH]c3n2)C1)N1CC(F)(F)C1 [Example 200, (R)-(1-(2-(1-(4-Chloro-1H-pyrazol-1-yl)cyclopropyl)-3H-imidazo[4,5-b]pyridin-5-yl)piperidin-3-yl)(3,3-difluoroazetidin-1-yl)methanone] |
| 102 | Cc1cc(C2(c3nc4ccc(N5CCC[C@@H](C(=O)N6CCCC6)C5)nc4[nH]3)CC2)no1 [Example 87, (R)-(1-(2-(1-(5-Methylisoxazol-3-yl)cyclopropyl)-3H-imidazo[4,5-b]pyridin-5-yl)piperidin-3-yl)(pyrrolidin-1-yl)methanone] |
| 60.5 | O=C([C@@H]1CCCN(c2ccc3nc(-c4cncc(C5CC5)n4)[nH]c3n2)C1)N1CCCC1 [Example 101, (R)-(1-(2-(6-Cyclopropylpyrazin-2-yl)-3H-imidazo[4,5-b]pyridin-5-yl)piperidin-3-yl)(pyrrolidin-1-yl)methanone] |
| 102 | N#Cc1cncc(-c2nc3ccc(N4CCC[C@@H](C(=O)N5CCCC5)C4)nc3[nH]2)c1 [Example 16, (R)-5-(5-(3-(Pyrrolidine-1-carbonyl)piperidin-1-yl)-3H-imidazo[4,5-b]pyridin-2-yl)nicotinonitrile] |
| 54.7 | O=C([C@@H]1CCCN(c2ccc3nc(-c4cccc5ccnn45)[nH]c3n2)C1)N1CCCC1 [Example 12, (R)-(1-(2-(Pyrazolo[1,5-a]pyridin-7-yl)-3H-imidazo[4,5-b]pyridin-5-yl)piperidin-3-yl)(pyrrolidin-1-yl)methanone] |
| 1400 | CS(=O)(=O)Nc1cccc(-c2nc3ccc(N4CCC[C@@H](C(=O)N5CCCC5)C4)nc3[nH]2)c1 [Example 30, (R)-N-(3-(5-(3-(Pyrrolidine-1-carbonyl)piperidin-1-yl)-3H-imidazo[4,5-b]pyridin-2-yl)phenyl)methanesulfonamide] |
| 34.5 | N#Cc1cccc(-c2nc3ccc(N4CCC[C@@H](C(=O)N5CCCC5)C4)nc3[nH]2)c1 [Example 47, (R)-3-(5-(3-(Pyrrolidine-1-carbonyl)piperidin-1-yl)-3H-imidazo[4,5-b]pyridin-2-yl)benzonitrile] |
| 357 | CC(C)(c1ccccc1)c1nc2ccc(N3CCC[C@@H](C(=O)N4CCCC4)C3)nc2[nH]1 [Example 22, (R)-(1-(2-(2-Phenylpropan-2-yl)-3H-imidazo[4,5-b]pyridin-5-yl)piperidin-3-yl)(pyrrolidin-1-yl)methanone] |
| 8.24 | Cc1cccc(-c2nc3ccc(N4CCC[C@@H](C(=O)N5CCCC5)C4)nc3[nH]2)c1 [Example 5, (R)-Pyrrolidin-1-yl(1-(2-m-tolyl-3H-imidazo[4,5-b]pyridin-5-yl)piperidin-3-yl)methanone] |
| 99.6 | COc1cccc(C2(c3nc4ccc(N5CCC[C@@H](C(=O)N6CCCC6)C5)nc4[nH]3)CC2)c1 [Example 102, (R)-(1-(2-(1-(3-Methoxyphenyl)cyclopropyl)-3H-imidazo[4,5-b]pyridin-5-yl)piperidin-3-yl)(pyrrolidin-1-yl)methanone] |
| 37.5 | O=C([C@@H]1CCCN(c2ccc3nc(-c4cncc(C5CC5)c4)[nH]c3n2)C1)N1CCCC1 [Example 183, (R)-(1-(2-(5-Cyclopropylpyridin-3-yl)-3H-imidazo[4,5-b]pyridin-5-yl)piperidin-3-yl)(pyrrolidin-1-yl)methanone] |
| 301 | O=C([C@@H]1CCCN(c2ccc3nc(-c4coc(C5CC5)n4)[nH]c3n2)C1)N1CCCC1 [Example 118, (R)-(1-(2-(2-Cyclopropyloxazol-4-yl)-3H-imidazo[4,5-b]pyridin-5-yl)piperidin-3-yl)(pyrrolidin-1-yl)methanone] |
| 66.2 | O=C([C@@H]1CCCN(c2ccc3nc(-c4ccccc4)[nH]c3n2)C1)N1CCCC1 [Example 116, (R)-(1-(2-Phenyl-3H-imidazo[4,5-b]pyridin-5-yl)piperidin-3-yl)(pyrrolidin-1-yl)methanone] |
| 162 | O=C([C@@H]1CCCN(c2ccc3nc(-c4ccnc(C5CC5)n4)[nH]c3n2)C1)N1CCOCC1 [Example 70, (R)-(1-(2-(2-Cyclopropylpyrimidin-4-yl)-3H-imidazo[4,5-b]pyridin-5-yl)piperidin-3-yl)(morpholino)methanone] |
| 3.58 | O=C([C@@H]1CCCN(c2ccc3nc(-c4cccc(C5CC5)n4)[nH]c3n2)C1)N1CC=CC1 [Example 158, (R)-(1-(2-(6-Cyclopropylpyridin-2-yl)-3H-imidazo[4,5-b]pyridin-5-yl)piperidin-3-yl)(2,5-dihydro-1H-pyrrol-1-yl)methanone] |
| 1160 | O=C([C@@H]1CCCN(c2ccc3nc(C4(Cc5ccccc5)COC4)[nH]c3n2)C1)N1CCCC1 [Example 85, (R)-(1-(2-(3-Benzyloxetan-3-yl)-3H-imidazo[4,5-b]pyridin-5-yl)piperidin-3-yl)(pyrrolidin-1-yl)methanone] |
| 434 | Cc1cc(N2CCC[C@@H](C(=O)N3CCCC3)C2)nc2[nH]c(-c3ccnc(C4CC4)n3)nc12 [Example 162, (R)-(1-(2-(2-Cyclopropylpyrimidin-4-yl)-7-methyl-3H-imidazo[4,5-b]pyridin-5-yl)piperidin-3-yl)(pyrrolidin-1-yl)methanone] |

Same assay, conditions: read-out: DGAT2 IC50

| IC50 [nM] | Molecule |
| --- | --- |
| 285 | Clc1cccc(-c2nc3ccc(N4CCO[C@@H](c5ccccn5)C4)nc3[nH]2)c1 [Example 152, (R)-4-(2-(3-chlorophenyl)-3H-imidazo[4,5-b]pyridin-5-yl)-2-(pyridin-2-yl)morpholine] |
| 131 | C[C@@H]1CC[C@H](C(=O)N2CCCC2)CN1c1ccc2nc(C3(n4cc(Cl)cn4)CC3)[nH]c2n1 [Example 217, ((3S,6R)-1-(2-(1-(4-chloro-1H-pyrazol-1-yl)cyclopropyl)-3H-imidazo[4,5-b]pyridin-5-yl)-6-methylpiperidin-3-yl)(pyrrolidin-1-yl)methanone] |
| 48.1 | O=C([C@@H]1CCCN(c2ccc3nc(-c4cccc(C5CC5)n4)[nH]c3n2)C1)N1CCOCC1 [Example 153, (R)-(1-(2-(6-Cyclopropylpyridin-2-yl)-3H-imidazo[4,5-b]pyridin-5-yl)piperidin-3-yl)(morpholino)methanone] |

| Molecule | IC50 [nM] |
| --- | --- |
| [(R)-1-{2-[1-(4-Chloro-1H-pyrazol-1-yl)cyclopropyl]-3H-imidazo[4,5-b]pyridin-5-yl}(2,2,6,6-^2H4)piperidin-3-yl](pyrrolidin-1-yl)methanone [Example 190] | 35.9 |
